In brackets after ≈: the same amount, converted by molar mass. Activity calls are given as the source filed them. The calls are words filed in the database; no cut-off is given here.
Tests used:
Oryctolagus cuniculus [1] = species: Oryctolagus cuniculus; assay: Relative potency was calculated from the Actin depolymerizing activity (aplyronine A = 100); assay type: functional
[2] = F-Actin (40 uM) depolymerizing activity which was monitored by measuring flow birefringence.; assay type: functional, Oryctolagus cuniculus
HeLa [3] = assay: Evaluated for the cytotoxicity against HeLa S3 cells; assay type: functional, cell-based; settings: Homo sapiens
HeLa [4] = assay: Relative potency was calculated from the cytotoxicity against HeLa S3 cells (aplyronine A = 100); assay type: functional, Homo sapiens
[5] = Compound was evaluated for the F-Actin (40 uM) depolymerizing activity* which was monitored by measuring flow birefringence (Actin was extracted in cold water from the acetone-dried powder of rabbit skeletal muscle); assay type: functional, tissue-based, Oryctolagus cuniculus, Muscle tissue
Oryctolagus cuniculus [6] = species: Oryctolagus cuniculus; assay: Relative potency was calculated from the Actin depolymerizing activity (aplyronine A = 100); Inactive; assay type: functional
[7] = Compound was evaluated for the F-Actin (40 uM) depolymerizing activity which was monitored by measuring flow birefringence (Actin was extracted in cold water from the acetone-dried powder of rabbit skeletal muscle); Inactive; assay type: functional, tissue-based, Oryctolagus cuniculus, Muscle tissue
[8] = Compound was evaluated for the F-Actin (40 uM) depolymerizing activity which was monitored by measuring flow birefringence (Actin was extracted in cold water from the acetone-dried powder of rabbit skeletal muscle); assay type: functional, tissue-based, Oryctolagus cuniculus, Muscle tissue

Compound	Relative potency (Oryctolagus cuniculus [1])	IC50 [2]	IC50 (HeLa [3])	Relative potency (HeLa [4])	IC50 [5]	Relative potency (Oryctolagus cuniculus [6])	IC50 [7]	IC50 [8]
COCC(C(=O)O[C@@H]1C/C=C/C=C/C(=O)O[C@H]([C@@H](C)[C@@H](O)[C@@H](C)COC(=O)C(C)N(C)C)C/C=C/[C@H](OC)C[C@H](C)C/C=C/[C@@H](OC)CC[C@@H](C)[C@@H](O)[C@@H]1C)N(C)C (stereo not given in full)	1.7	1800 µM						
COCC(C(=O)O[C@@H]1C/C=C/C=C/C(=O)O[C@H]([C@@H](C)[C@@H](OC(C)=O)[C@@H](C)CC[C@@H](OC(=O)C(C)N(C)C)[C@H](C)[C@H](OC(C)=O)[C@H](C)/C=C/N(C)C=O)C/C=C/[C@H](OC)C[C@H](C)C/C=C(\C)[C@@H](OC)CC[C@@H](C)[C@@H](OC(C)=O)[C@@H]1C)N(C)C (stereo not given in full)	54	57 µM	0.216 µg/mL (≈ 0.186 µM)	0.22				
C[C@H]([C@H](O)[C@H](C)CCO)[C@H](O)CC[C@H](C)[C@H](O)[C@H](C)[C@@H](O)CCO	0.41				7600 µM			
COCC(C(=O)O[C@H]1[C@H](C)[C@H](O)C/C=C/C=C/C(=O)O[C@H]([C@@H](C)[C@@H](O)[C@@H](C)CC[C@@H](OC(=O)C(C)N(C)C)[C@H](C)[C@H](OC(C)=O)[C@H](C)/C=C/N(C)C=O)C/C=C/[C@H](OC)C[C@H](C)C/C=C(\C)[C@@H](OC)CC[C@H]1C)N(C)C (stereo not given in full) [APLYRONINE B]	94	33 µM	0.00311 µg/mL (≈ 0.00289 µM)	15				
COCC(C(=O)O[C@@H]1C/C=C/C=C/C(=O)OCC/C=C/[C@H](OC)C[C@H](C)C/C=C(\C)[C@@H](OC)CC[C@@H](C)[C@@H](O)[C@@H]1C)N(C)C (stereo not given in full)			2.1 µg/mL (≈ 3.38 µM)	0.023				
COCC(C(=O)O[C@@H]1C/C=C/C=C/C(=O)O[C@H]([C@@H](C)[C@@H](O)[C@@H](C)CC[C@@H](OC(=O)C(C)N(C)C)[C@H](C)[C@H](OC(C)=O)[C@H](C)CCO)C/C=C/[C@H](OC)C[C@H](C)C/C=C(\C)[C@@H](OC)CC[C@@H](C)[C@@H](O)[C@@H]1C)N(C)C (stereo not given in full)	40	78 µM	0.00172 µg/mL (≈ 0.00166 µM)	28				
CO[C@H]1CC[C@@H](C)[C@@H](O)[C@H](C)[C@H](O)C/C=C/C=C/C(=O)O[C@H]([C@@H](C)[C@@H](O)[C@@H](C)CC[C@@H](O)[C@H](C)[C@H](OC(C)=O)[C@H](C)/C=C/N(C)C=O)C/C=C/[C@H](OC)C[C@H](C)C/C=C/1C	86	35 µM	0.113 µg/mL (≈ 0.133 µM)	0.42				
COCC(C(=O)O[C@@H]1C/C=C/C=C/C(=O)O[C@H]([C@@H](C)[C@@H](O)[C@@H](C)CC[C@@H](O)[C@H](C)[C@H](O)[C@H](C)CCO)C/C=C/[C@H](OC)C[C@H](C)C/C=C/[C@@H](OC)CC[C@@H](C)[C@@H](O)[C@@H]1C)N(C)C (stereo not given in full)	16	190 µM	0.083 µg/mL (≈ 0.0941 µM)	0.58				
COCC(C(=O)O[C@@H]1C/C=C/C=C/C(=O)O[C@H]([C@@H](C)[C@@H](O)[C@@H](C)CC[C@@H](O)[C@H](C)[C@H](OC(C)=O)[C@H](C)CCO)C/C=C/[C@H](OC)C[C@H](C)C/C=C/[C@@H](OC)CC[C@@H](C)[C@@H](O)[C@@H]1C)N(C)C (stereo not given in full)	86	36 µM	0.037 µg/mL (≈ 0.04 µM)	1.3				
COCC(C(=O)O[C@@H]1C/C=C/C=C/C(=O)OCC/C=C/[C@H](OC)C[C@H](C)C/C=C/[C@@H](OC)CC[C@@H](C)[C@@H](O)[C@@H]1C)N(C)C (stereo not given in full)						inactive	Not Active	
COCC(C(=O)O[C@@H]1C/C=C/C=C/C(=O)O[C@H]([C@@H](C)[C@@H](O)[C@@H](C)CC[C@@H](OC(=O)C(C)N(C)C)[C@H](C)[C@H](OC(C)=O)[C@H](C)CCO)C/C=C/[C@H](OC)C[C@H](C)C/C=C/[C@@H](OC)CC[C@@H](C)[C@@H](O)[C@@H]1C)N(C)C (stereo not given in full)	82	38 µM	0.0026 µg/mL (≈ 0.00254 µM)	18				
COCC(C(=O)O[C@@H]1CCCCCC(=O)O[C@H]([C@@H](C)[C@@H](O)[C@@H](C)CC[C@@H](OC(=O)C(C)N(C)C)[C@H](C)[C@H](OC(C)=O)[C@H](C)CCO)C/C=C/[C@H](OC)C[C@H](C)C/C=C(\C)[C@@H](OC)CC[C@@H](C)[C@@H](O)[C@@H]1C)N(C)C (stereo not given in full)	44	70 µM	0.057 µg/mL (≈ 0.0547 µM)	0.84				
CO[C@H]1CC[C@@H](C)[C@@H](O)[C@H](C)[C@H](O)C/C=C/C=C/C(=O)O[C@H]([C@@H](C)[C@@H](O)[C@@H](C)CC[C@@H](OC(=O)C(C)N(C)C)[C@H](C)[C@H](OC(C)=O)[C@H](C)/C=C/N(C)C=O)C/C=C/[C@H](OC)C[C@H](C)C/C=C/1C (stereo not given in full) [APLYRONINE C]	97	32 µM	0.0212 µg/mL (≈ 0.0224 µM)	2.3				
COCC(C(=O)O[C@@H]1C/C=C/C=C/C(=O)O[C@H]([C@@H](C)[C@@H](O)[C@@H](C)CC[C@@H](OC(=O)C(C)N(C)C)[C@H](C)[C@H](OC(C)=O)[C@H](C)/C=C/N(C)C=O)C/C=C/[C@H](OC)C[C@H](C)C/C=C(\C)[C@@H](OC)CC[C@@H](C)[C@@H](O)[C@@H]1C)N(C)C (stereo not given in full) [APLYRONINE A]	100	31 µM	0.00048 µg/mL (≈ 0.000446 µM)	100				
CO[C@@H]1/C=C/C[C@@H](C)C[C@@H](OC)/C=C/C[C@@H]([C@@H](C)[C@@H](O)[C@@H](C)CC[C@@H](OC(=O)CN(C)C)[C@H](C)[C@H](OC(C)=O)[C@H](C)CCO)OC(=O)/C=C/C=C/C[C@@H](OC(=O)CN(C)C)[C@@H](C)[C@H](O)[C@H](C)CC1	63	49 µM	> 2 µg/mL	<0.02				
COCC(C(=O)O[C@@H]1C/C=C/C=C/C(=O)O[C@H]([C@@H](C)[C@@H](O)[C@@H](C)CO)C/C=C/[C@H](OC)C[C@H](C)C/C=C/[C@@H](OC)CC[C@@H](C)[C@@H](O)[C@@H]1C)N(C)C (stereo not given in full)	0.69		> 2 µg/mL	<0.02				4500 µM
COCC(C(=O)O[C@@H]1C/C=C/C=C/C(=O)O[C@H]([C@@H](C)[C@@H](O)[C@@H](C)CC[C@@H](O)[C@H](C)[C@H](OC(C)=O)[C@H](C)/C=C/N(C)C=O)C/C=C/[C@H](OC)C[C@H](C)C/C=C(\C)[C@@H](OC)CC[C@@H](C)[C@@H](O)[C@@H]1C)N(C)C (stereo not given in full)	86	35 µM	0.00103 µg/mL (≈ 0.00105 µM)	47				
